Format in all cases: functional, cell-based
For series [1], the target named is T1, Solute carrier organic anion transporter family member 1A1 (Rattus norvegicus, UniProt P46720).
T1 sequence (P46720 whole entry): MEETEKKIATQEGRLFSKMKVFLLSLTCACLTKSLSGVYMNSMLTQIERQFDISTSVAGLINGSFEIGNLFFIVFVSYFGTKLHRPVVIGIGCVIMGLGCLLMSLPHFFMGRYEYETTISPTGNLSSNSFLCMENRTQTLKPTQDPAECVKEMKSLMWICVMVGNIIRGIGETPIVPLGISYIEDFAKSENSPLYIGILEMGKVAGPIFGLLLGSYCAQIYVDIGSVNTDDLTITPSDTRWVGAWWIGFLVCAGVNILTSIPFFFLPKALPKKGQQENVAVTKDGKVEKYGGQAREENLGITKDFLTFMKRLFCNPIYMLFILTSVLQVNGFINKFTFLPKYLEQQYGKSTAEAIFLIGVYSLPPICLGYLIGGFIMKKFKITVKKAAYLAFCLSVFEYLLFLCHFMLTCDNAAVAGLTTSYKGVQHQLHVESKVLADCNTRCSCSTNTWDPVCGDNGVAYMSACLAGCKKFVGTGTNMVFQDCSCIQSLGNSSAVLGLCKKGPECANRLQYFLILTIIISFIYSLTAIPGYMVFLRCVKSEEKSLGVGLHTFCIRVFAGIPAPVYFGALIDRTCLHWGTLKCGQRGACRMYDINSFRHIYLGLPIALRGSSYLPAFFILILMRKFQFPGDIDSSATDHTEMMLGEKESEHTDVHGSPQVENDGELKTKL
Briefly: TP_TRANSPORTER: uptake of Tauro-23-norcholate at 20 u M in Oatp1-expressing HeLa cells. To be noted: human, 20 µM.

Series [2] concerns the target T1, Solute carrier organic anion transporter family member 1A1. As to the kind of experiment: TP_TRANSPORTER: uptake of 23-Nor-cholate at 20 u M in Oatp1-expressing HeLa cells. The conditions noted are these: human, 20 µM.
The target is the same in series [3]. As to the kind of experiment: TP_TRANSPORTER: uptake of Glyco-23-norcholate at 20 uM in Oatp1-expressing HeLa cells. To be noted: human.
Series [4] shares this target. Briefly: TP_TRANSPORTER: uptake of Chenodeoxycholate at 20 uM in Oatp1-expressing HeLa cells. To be noted: human.
Series [5] shares this target. As to the kind of experiment: TP_TRANSPORTER: uptake of Deoxycholate at 1 uM in Oatp1-expressing HeLa cells. To be noted: human.
Series [6] addresses T2, Hepatic sodium/bile acid cotransporter (Rattus norvegicus, UniProt P26435).
T2 sequence (P26435 whole entry): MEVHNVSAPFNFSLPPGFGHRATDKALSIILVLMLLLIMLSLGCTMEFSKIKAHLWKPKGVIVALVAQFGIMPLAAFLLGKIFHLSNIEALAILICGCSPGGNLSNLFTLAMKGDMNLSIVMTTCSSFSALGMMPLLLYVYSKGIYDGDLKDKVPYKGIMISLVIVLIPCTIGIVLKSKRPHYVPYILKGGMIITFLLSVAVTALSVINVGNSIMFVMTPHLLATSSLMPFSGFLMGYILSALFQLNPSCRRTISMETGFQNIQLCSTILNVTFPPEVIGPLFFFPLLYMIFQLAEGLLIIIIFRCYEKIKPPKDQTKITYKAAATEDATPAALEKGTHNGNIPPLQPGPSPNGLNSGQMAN
Briefly: TP_TRANSPORTER: uptake of Deoxycholate at a concentration of 1 u M in NTCP-expressing HeLa cells. To be noted: human, 1 µM.

Series [7] has as its target T1, Solute carrier organic anion transporter family member 1A1. Briefly: TP_TRANSPORTER: uptake of Glycochenodeoxycholate at 20 uM in Oatp1-expressing HeLa cells. To be noted: human.
For series [8] the target is unchanged. As to the kind of experiment: TP_TRANSPORTER: uptake of Glycocholate at 4 u M in Oatp1-expressing HeLa cells. The conditions noted are these: human, 4 µM.
Series [9] has the same target. As to the kind of experiment: TP_TRANSPORTER: uptake of Glycocholate at 20 u M in Oatp1-expressing HeLa cells. The conditions noted are these: human, 20 µM.
The target in series [10] is T2, Hepatic sodium/bile acid cotransporter. Briefly: TP_TRANSPORTER: uptake of Glycocholate at a concentration of 4 u M in NTCP-expressing HeLa cells. The conditions noted are these: human, 4 µM.
The target of series [11] is T1, Solute carrier organic anion transporter family member 1A1. Briefly: TP_TRANSPORTER: uptake of Glycotrihydroxycoprostanoic acid at 20 u M in Oatp1-expressing HeLa cells. The conditions noted are these: human, 20 µM.
Series [12] has the same target. Briefly: TP_TRANSPORTER: uptake of Glycoursodeoxycholate at 20 u M in Oatp1-expressing HeLa cells. The conditions noted are these: human, 20 µM.
For series [13], the target named is T2, Hepatic sodium/bile acid cotransporter. As to the kind of experiment: TP_TRANSPORTER: uptake of Hyodeoxycholate at a concentration of 1 u M in NTCP-expressing HeLa cells. The conditions noted are these: human, 1 µM.
The target in series [14] is T1, Solute carrier organic anion transporter family member 1A1. As to the kind of experiment: TP_TRANSPORTER: uptake of Lagodeoxycholate at 1 uM in Oatp1-expressing HeLa cells. To be noted: human.
In series [15] the target is T2, Hepatic sodium/bile acid cotransporter. As to the kind of experiment: TP_TRANSPORTER: uptake of Lagodeoxycholate at a concentration of 1 u M in NTCP-expressing HeLa cells. The conditions noted are these: human, 1 µM.
Series [16] concerns the target T1, Solute carrier organic anion transporter family member 1A1. Briefly: TP_TRANSPORTER: uptake of Muricholate at 1 u M in Oatp1-expressing HeLa cells. To be noted: human, 1 µM.
Series [17] deals with T2, Hepatic sodium/bile acid cotransporter. As to the kind of experiment: TP_TRANSPORTER: uptake of Muricholate at a concentration of 1 u M in NTCP-expressing HeLa cells. The conditions noted are these: human, 1 µM.
Series [18] concerns the target T1, Solute carrier organic anion transporter family member 1A1. Briefly: TP_TRANSPORTER: uptake of Bromosulfophthalein at 1 u M in Oatp1-expressing HeLa cells. The conditions noted are these: human, 1 µM.
For series [19] the target is unchanged. Briefly: TP_TRANSPORTER: uptake of Taurochenodeoxycholate at 20 u M in Oatp1-expressing HeLa cells. To be noted: human, 20 µM.
For series [20] the target is unchanged. As to the kind of experiment: TP_TRANSPORTER: uptake of Taurolagodeoxycholate at 1 u M in Oatp1-expressing HeLa cells. The conditions noted are these: human, 1 µM.
The target of series [21] is T2, Hepatic sodium/bile acid cotransporter. As to the kind of experiment: TP_TRANSPORTER: uptake of Taurolagodeoxycholate at a concentration of 1 u M in NTCP-expressing HeLa cells. To be noted: human, 1 µM.
In series [22] the target is T1, Solute carrier organic anion transporter family member 1A1. Briefly: TP_TRANSPORTER: uptake of Tauromurocholate at 1 u M in Oatp1-expressing HeLa cells. To be noted: human, 1 µM.
The target in series [23] is T2, Hepatic sodium/bile acid cotransporter. As to the kind of experiment: TP_TRANSPORTER: uptake of Tauromurocholate at a concentration of 1 u M in NTCP-expressing HeLa cells. To be noted: human, 1 µM.
Series [24] deals with T1, Solute carrier organic anion transporter family member 1A1. As to the kind of experiment: TP_TRANSPORTER: uptake of Taurotrihydroxycoprostanoic acid at 20 u M in Oatp1-expressing HeLa cells. The conditions noted are these: human, 20 µM.
Series [25] shares this target. Briefly: TP_TRANSPORTER: uptake of Tauroursodeoxycholate at 20 u M in Oatp1-expressing HeLa cells. To be noted: human, 20 µM.
For series [26] the target is unchanged. Briefly: TP_TRANSPORTER: uptake of Trihydroxycoprostanoic acid at 20 uM in Oatp1-expressing HeLa cells. The conditions noted are these: human.
Series [27] has the same target. Briefly: TP_TRANSPORTER: uptake of Ursodeoxycholate at 20 uM in Oatp1-expressing HeLa cells. To be noted: human.

Take `C[C@H](CC(=O)NCCS(=O)(=O)O)[C@H]1CC[C@H]2[C@@H]3[C@H](O)C[C@@H]4C[C@H](O)CC[C@]4(C)[C@H]3C[C@H](O)[C@]12C`: the Activity entry in series [1] is “substrate [+]”.

With `C[C@H](CC(=O)O)[C@H]1CC[C@H]2[C@@H]3[C@H](O)C[C@@H]4C[C@H](O)CC[C@]4(C)[C@H]3C[C@H](O)[C@]12C`, the Activity result in [2] was “substrate [+]”.

With `C[C@H](CC(=O)NCC(=O)O)[C@H]1CC[C@H]2[C@@H]3[C@H](O)C[C@@H]4C[C@H](O)CC[C@]4(C)[C@H]3C[C@H](O)[C@]12C`, in series [3], the Activity entry is “is not a substrate [-]”.

Regarding `C[C@H](CCC(=O)O)[C@H]1CC[C@H]2[C@@H]3[C@H](O)C[C@@H]4C[C@H](O)CC[C@]4(C)[C@H]3CC[C@]12C` [CHENODIOL], the Activity result in series [4] was “is not a substrate [-]”.

In the case of `C[C@H](CCC(=O)O)[C@H]1CC[C@H]2[C@@H]3CC[C@@H]4C[C@H](O)CC[C@]4(C)[C@H]3C[C@H](O)[C@]12C` [DEOXYCHOLIC ACID], the Activity result in series [5] and in series [6] was “is not a substrate [-]” throughout.

As for `C[C@H](CCC(=O)NCC(=O)O)[C@H]1CC[C@H]2[C@@H]3[C@H](O)C[C@@H]4C[C@H](O)CC[C@]4(C)[C@H]3CC[C@]12C` [GLYCOCHENODEOXYCHOLATE], the Activity result in series [7] is “is not a substrate [-]”.

As for `C[C@H](CCC(=O)NCC(=O)O)[C@H]1CC[C@H]2[C@@H]3[C@H](O)C[C@@H]4C[C@H](O)CC[C@]4(C)[C@H]3C[C@H](O)[C@]12C` [GLYCOCHOLIC ACID], the Activity entry in [8], in series [9] and in series [10] was “substrate [+]” each time.

On to `CC(CC(=O)NCC(=O)O)[C@H]1CC[C@@H]2C1[C@@H](O)C[C@@H]1C3CC[C@@H](O)CC3C[C@@H](O)[C@H]12` (some centres not stated) [GLYCOTRIHYDROXYCOPROSTANOIC ACID], for which the Activity result in [11] is “substrate [+]”.

In the case of `C[C@H](CCC(=O)NCC(=O)O)[C@H]1CC[C@H]2[C@@H]3[C@@H](O)C[C@@H]4C[C@H](O)CC[C@]4(C)[C@H]3CC[C@]12C` [GLYCOURSODEOXYCHOLIC ACID], the Activity entry in series [12] was “substrate [+]”.

Consider `C[C@H](CCC(=O)O)[C@H]1CC[C@H]2[C@@H]3C[C@H](O)[C@@H]4C[C@H](O)CC[C@]4(C)[C@H]3CC[C@]12C` [HYODEOXYCHOLIC_ACID], for which the Activity result in series [13] was “is not a substrate [-]”.

With `C[C@H](CCC(=O)O)[C@H]1CC[C@H]2[C@@H]3CC[C@@H]4C[C@H](O)CC[C@]4(C)[C@H]3C[C@@H](O)[C@]12C` [LAGODEOXYCHOLATE], the Activity result in series [14] and in series [15] was “is not a substrate [-]” throughout.

As for `C[C@H](CCC(=O)O)C1CC[C@H]2[C@@H]3C(O)C(O)C4C[C@H](O)CC[C@]4(C)[C@H]3CC[C@]12C` (some centres not stated) [MURICHOLATE], the Activity entry in series [16] and in [17] was “substrate [+]” each time.

Consider `O=C1OC(c2ccc(O)c(S(=O)(=O)[O-])c2)(c2ccc(O)c(S(=O)(=O)[O-])c2)c2c(Br)c(Br)c(Br)c(Br)c21.[Na+].[Na+]` [SULFOBROMOPHTHALEIN SODIUM], for which the Activity entry in series [18] is “substrate [+]”.

Take `C[C@H](CCC(=O)NCCS(=O)(=O)O)[C@H]1CC[C@H]2[C@@H]3[C@H](O)C[C@@H]4C[C@H](O)CC[C@]4(C)[C@H]3CC[C@]12C` [TAUROCHENODEOXYCHOLATE]: the Activity entry in series [19] is “substrate [+]”.

Take `C[C@H](CCC(=O)NCCS(=O)(=O)O)[C@H]1CC[C@H]2[C@@H]3CC[C@H]4C[C@H](O)CC[C@]4(C)[C@H]3C[C@@H](O)[C@]12C` [TAUROLAGODEOXYCHOLATE]: the Activity entry in series [20] and in series [21] was “substrate [+]” throughout.

Take `C[C@H](CCC(=O)NCCS(=O)(=O)O)[C@H]1CC[C@H]2[C@@H]3C[C@@H](O)[C@@H]4C[C@H](O)CC[C@]4(C)[C@H]3CC[C@]12C` [TAUROMUROCHOLATE]: the Activity entry in [22] and in series [23] was “substrate [+]” each time.

As to `CC(CCC[C@@H](C)C1CC[C@H]2[C@@H]3[C@H](O)C[C@]4(C(=O)O)C[C@H](O)CC[C@]4(C)[C@H]3C[C@H](O)[C@]12C)C(=O)NCCS(=O)(=O)O` (some centres not stated) [TAUROTRIHYDROXYCOPROSTANOIC ACID], the Activity entry in series [24] was “substrate [+]”.

`C[C@H](CCC(=O)NCCS(=O)(=O)O)[C@H]1CC[C@H]2[C@@H]3[C@@H](O)C[C@@H]4C[C@H](O)CC[C@]4(C)[C@H]3CC[C@]12C` [TAURURSODIOL]: the Activity result in [25] is “substrate [+]”.

As to `CC(C)CCC[C@@H](C)C1CC[C@H]2[C@@H]3[C@H](O)C[C@]4(C(=O)O)C[C@H](O)CC[C@]4(C)[C@H]3C[C@H](O)[C@]12C` (some centres not stated) [TRIHYDROXYCOPROSTANOIC ACID], the Activity entry in series [26] is “is not a substrate [-]”.

Take `C[C@H](CCC(=O)O)[C@H]1CC[C@H]2[C@@H]3[C@@H](O)C[C@@H]4C[C@H](O)CC[C@]4(C)[C@H]3CC[C@]12C` [URSODIOL]: in series [27], the Activity result was “is not a substrate [-]”.

Values taken from ChEMBL document CHEMBL2074029, “Substrate specificities of rat oatp1 and ntcp: implications for hepatic organic anion uptake” (Am J Physiol Gastrointest Liver Physiol, 2003).
